In article PMC7284416, “The Product Specificities of Maize Terpene Synthases TPS4 and TPS10 Are Determined Both by Active Site Amino Acids and Residues Adjacent to the Active Site” (Plants, 2020):
Changes are numbered by the printed parent chain. One block for each molecule: values may come before it.

Key:
TPS4 (tps4-B73) [1] = molecular target: T1, TPS4 (tps4-B73) (Zea mays, UniProt Q6JD73, I411F/R442K, form not given); experiment: [[…]-3H]FPP turnover, pentane-extracted products, scintillation counting; type: biochemical; settings: 10 mM MgCl2, 10 mM Mopso pH 7.0, 1 mM DTT, 10% glycerol, 30 °C; labelled compound; read-out: TPS4-c17 R442K + I411F
T1 construct: expressed in E. coli BL21(DE3) from pHIS8-3, N-terminal His8 tag kept, Ni-NTA purified; forward primer starts the ORF at codons for SSTFHPSL, native C-terminus FVEPIPE
T1 sequence (Q6JD73 21-554 I411F/R442K): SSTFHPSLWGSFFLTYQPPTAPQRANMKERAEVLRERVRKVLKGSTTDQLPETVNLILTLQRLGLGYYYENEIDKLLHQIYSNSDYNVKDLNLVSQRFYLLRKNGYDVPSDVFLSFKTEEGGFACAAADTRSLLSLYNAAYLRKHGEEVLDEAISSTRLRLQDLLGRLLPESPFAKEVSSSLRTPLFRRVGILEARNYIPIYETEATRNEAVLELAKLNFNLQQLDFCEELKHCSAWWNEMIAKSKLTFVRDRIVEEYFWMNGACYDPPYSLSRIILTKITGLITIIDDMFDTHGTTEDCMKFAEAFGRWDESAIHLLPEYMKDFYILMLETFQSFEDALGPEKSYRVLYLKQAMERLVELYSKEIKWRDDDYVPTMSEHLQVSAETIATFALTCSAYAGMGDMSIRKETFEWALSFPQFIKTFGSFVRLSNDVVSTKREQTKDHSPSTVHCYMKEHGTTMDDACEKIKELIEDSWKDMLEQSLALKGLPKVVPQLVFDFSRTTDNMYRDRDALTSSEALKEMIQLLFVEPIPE

TPS10 (tps10-B73) = molecular target: T2, TPS10 (tps10-B73) (Zea mays, UniProt Q2NM15); experiment: as above; type: biochemical; settings: 10 mM MgCl2, 10 mM Mopso pH 7.0, 1 mM DTT, 10% glycerol, 30 °C; labelled compound
T2 construct: expressed in E. coli BL21(DE3) from pHIS8-3 (NcoI/EcoRI), His tag kept, Ni-NTA purified; printed forward primer codes for MPPPS at the N-terminus
T2 sequence (Q2NM15 1-533): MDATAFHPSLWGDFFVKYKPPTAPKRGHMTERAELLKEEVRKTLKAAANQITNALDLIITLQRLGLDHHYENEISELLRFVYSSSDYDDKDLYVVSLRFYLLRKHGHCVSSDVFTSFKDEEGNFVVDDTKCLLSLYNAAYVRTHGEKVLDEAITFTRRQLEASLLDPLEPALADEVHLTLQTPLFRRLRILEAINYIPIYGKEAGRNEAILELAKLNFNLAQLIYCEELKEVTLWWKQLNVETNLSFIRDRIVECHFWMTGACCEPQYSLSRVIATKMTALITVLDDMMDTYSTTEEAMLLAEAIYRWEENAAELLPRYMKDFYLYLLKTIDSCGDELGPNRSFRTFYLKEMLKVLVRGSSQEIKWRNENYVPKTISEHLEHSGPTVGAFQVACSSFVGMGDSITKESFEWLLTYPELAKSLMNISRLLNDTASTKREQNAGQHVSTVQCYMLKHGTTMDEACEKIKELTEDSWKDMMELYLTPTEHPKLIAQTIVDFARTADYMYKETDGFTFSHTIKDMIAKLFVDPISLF

TPS4 (tps4-B73) [2] = molecular target: T3, TPS4 (tps4-B73) (Zea mays, UniProt Q6JD73); experiment: as above; type: biochemical; settings: 10 mM MgCl2, 10 mM Mopso pH 7.0, 1 mM DTT, 10% glycerol, 30 °C; labelled compound; read-out: TPS4-c17
T3 construct: expressed in E. coli BL21(DE3) from pHIS8-3, N-terminal His8 tag kept, Ni-NTA purified; forward primer starts the ORF at codons for SSTFHPSL, native C-terminus FVEPIPE
T3 sequence (Q6JD73 21-554): T1 sequence (Q6JD73 21-554 I411F/R442K) with F391I, K422R

purified protein = substrate: CC(C)=CCC/C(C)=C/CC/C(C)=C/CO[P@@](=O)(O)OP(=O)(O)O; experiment: purified protein; type: biochemical, Zea mays; settings: 10 mM MgCl2, 10 mM Mopso pH 7.0, 1 mM DTT, 10% glycerol, 30 °C, labelled compound

Km (TPS4 (tps4-B73) [1]): 2.3 ± 0.3 µM
Km (TPS10 (tps10-B73)): 3.2 ± 0.5 µM
Km (TPS4 (tps4-B73) [2]): 2.1 ± 0.3 µM
Molecule: CC(C)=CCC/C(C)=C/CC/C(C)=C/CO[P@@](=O)(O)OP(=O)(O)O [(E,E)-farnesyl diphosphate]

B1: TPS4 (tps4-B73) (Zea mays) (protein)
chain: T1 sequence (Q6JD73 21-554 I411F/R442K) with F391I, K422R
notes: expressed in E. coli BL21(DE3) from pHIS8-3, N-terminal His8 tag kept, Ni-NTA purified; forward primer starts the ORF at codons for SSTFHPSL, native C-terminus FVEPIPE
Km (purified protein): 3.8 ± 0.5 µM
kcat (purified protein): 0.0105 ± 0.0006 s⁻¹
